Laboratory results as given in patent US6375461B1 (Ultradent Products, Inc., priority 2000, dated 2002).
Where two headings read alike, the source gives them in different places.

What was measured:
gingival tissue = experiment: Local effect on gingival tissue when used in gingival retraction cords; format: in vivo, patient
[1] = Reaction with iron-based astringents (ferric salts), formation of colored reaction products; format: physicochemical; details: mixed with astringent salts
[2] = cited from earlier work
[3] = test system: heart rate and blood pressure; experiment: Systemic effects (heart rate, blood pressure) of retraction cords packed into the gingival sulcus; details: retraction cords packed into a person's gingival sulcus
[4] = mixed with ferric salts; cited from earlier work
[5] = test system: heart rate and blood pressure; details: in vivo

SMILES | stiffening and retraction of gingival tissue (gingival tissue; gingival tissue) | vasoconstricting effect (gingival tissue; used in gingival retraction cords) | colored reaction products with astringent salts including ferric salts [1] | volume of water in which 1 gram is dissolvable [2] [mL] | systemic effects: heart rate and blood pressure [3] | colored reaction products with ferric salts (known) [4] | systemic effects: heart rate and blood pressure [5]
CNC(C)CC1CCCCC1 (stereo not drawn) [Propylhexedrine, N,α-dimethylcyclohexaneethylamine] | localized stiffening and retraction of gingival tissue | localized vasoconstricting effect | without forming colored reaction products | 500 | does not produce the systemic adrenal effects |  | 
CNC[C@H](O)c1ccc(O)c(O)c1 [epinephrine] |  |  |  |  |  | immediately form purple-colored reaction products | increase a patient's heart rate and blood pressure
